Results as given in ChEMBL document CHEMBL4251705, “Y08060: A Selective BET Inhibitor for Treatment of Prostate Cancer” (ACS Med Chem Lett, 2018).

target: T1, Bromodomain-containing protein 4 (Homo sapiens, UniProt O60885); conditions: not given

Compound | ΔTm [°C]
COc1ccc(Br)cc1S(=O)(=O)Nc1cc2c(cc1N(C)C)NC(=O)C(C)(C)O2 | 3.6
COc1ccc(Br)cc1S(=O)(=O)Nc1cc2c(cc1N1CCCC1)NC(=O)C(C)(C)O2 | 1.8
COc1ccc(Br)cc1S(=O)(=O)Nc1cc2c(cc1N1CCOCC1)NC(=O)C(C)(C)O2 | 0
CC1(C)Oc2cc(NS(=O)(=O)c3ccc(F)cc3F)cnc2NC1=O | 2.3
COc1ccc(Br)cc1S(=O)(=O)Nc1cc2c(cc1Cl)NC(=O)C(C)(C)O2 | 4.2
CC1(C)Oc2cc(NS(=O)(=O)c3ccc(F)cc3F)ccc2NC1=O | 6.3
COC(=O)c1ccccc1S(=O)(=O)Nc1ccc2c(c1)OC(C)(C)C(=O)N2 | 4

Now from value to compound:

ΔTm [°C] | Compound
1.4 | CCCCS(=O)(=O)Nc1cnc2c(c1)OC(C)(C)C(=O)N2
4.5 | CC1(C)Oc2cc(NS(=O)(=O)c3ccc(F)cc3)ccc2NC1=O
5.1 | CC1(C)Oc2cc(NS(=O)(=O)c3cccs3)ccc2NC1=O
4.5 | CCCCS(=O)(=O)Nc1ccc2c(c1)OC(C)(C)C(=O)N2
3.9 | CCCS(=O)(=O)Nc1ccc2c(c1)OC(C)(C)C(=O)N2
2.4 | CC1(C)Oc2cc(NS(=O)(=O)c3cccc(Cl)c3F)ccc2NC1=O

target: T1, Bromodomain-containing protein 4; test: Inhibition of human His6-tagged BRD4 BD1 (N44 to E168 residues) expressed in Escherichia coli BL21 (DE3) cells using H-SGRGK(Ac)GGK(Ac)GLGK(Ac)GGAK(Ac)RHRK-Biotin-OH as substrate after 2.5 hrs by AlphaScreen assay; conditions: not given

IC50 | Compound
Not Active | COc1ccc(Br)cc1S(=O)(=O)Nc1cc2c(cc1N1CCOCC1)NC(=O)C(C)(C)O2

same assay, conditions: read-out: IC50

Compound | IC50 [µM]
COc1ccc(Br)cc1S(=O)(=O)Nc1cc2c(cc1N(C)C)NC(=O)C(C)(C)O2 | 4.77
COc1ccc(Br)cc1S(=O)(=O)Nc1cc2c(cc1N1CCCC1)NC(=O)C(C)(C)O2 | 4.73
CC1(C)Oc2cc(NS(=O)(=O)c3ccc(F)cc3F)cnc2NC1=O | 40.1
COc1ccc(Br)cc1S(=O)(=O)Nc1cc2c(cc1Cl)NC(=O)C(C)(C)O2 | 3.59
CC1(C)Oc2cc(NS(=O)(=O)c3ccc(F)cc3F)ccc2NC1=O | 2.73
COC(=O)c1ccccc1S(=O)(=O)Nc1ccc2c(c1)OC(C)(C)C(=O)N2 | 9.32

Continued, values first:

IC50 [µM] | Compound
> 50 | CCCCS(=O)(=O)Nc1cnc2c(c1)OC(C)(C)C(=O)N2
4.79 | CC1(C)Oc2cc(NS(=O)(=O)c3ccc(F)cc3)ccc2NC1=O
6.54 | CC1(C)Oc2cc(NS(=O)(=O)c3cccs3)ccc2NC1=O
11.9 | CCCCS(=O)(=O)Nc1ccc2c(c1)OC(C)(C)C(=O)N2
12 | CCCS(=O)(=O)Nc1ccc2c(c1)OC(C)(C)C(=O)N2
> 50 | CC1(C)Oc2cc(NS(=O)(=O)c3cccc(Cl)c3F)ccc2NC1=O
